# Laboratory results: patent US20020137929A1, “1 - (3-heterocyclylphenyl) isothiourea, -isourea, -guanidine and -amidine herbicidal agents” (Intellectual Property Department, BASF Aktiengesellschaft, priority 1998, published 2002)
# Assays:
# ABUTH (Velvetleaf) [1] = assay: Postemergence herbicidal evaluation; format: in vivo, Abutilon theophrasti; conditions: postemergence
# Summary of the method: (§1)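 Herbicidal effect was judged by eye on a 0–9 scale covering stand, vigor, deformity, size and chlorosis, compared with controls, four to five weeks after seedlings about two weeks old were sprayed (40 psi, ~0.0156–0.500 kg/ha).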
# CYPSE (Flatsedge) = assay: Preemergence weed control under flooded paddy conditions; format: in vivo, Cyperus serotinus; conditions: rated 3-4 weeks after treatment
# Summary of the method: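 Seeds or propagules sown in silt loam kept flooded 1.5-3 cm; compounds in 50/50 acetone/water pipetted into flood water at about 0.0313 to 0.500 kg/ha. Greenhouse; visual 0-9 rating versus untreated control 3-4 weeks after treatment.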
# CYPIR (Rice Flatsedge) = assay: Postemergence weed control under flooded paddy conditions; format: in vivo, Cyperus iria; conditions: postemergence weeds, rated 3 to 4 weeks after treatment
# Summary of the method: (§2)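 Flood-water application, about 0.0313–0.500 kg/ha a.i. in aqueous/acetone 50/50 v/v; water depth 1.5–3 cm throughout. Weeds 3–5 cm, rice 1.5–2.5 leaf. Greenhouse; 0–9 visual rating vs control at 3–4 wk.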
# [2] = test system: GLXMAW (Soybean, Williams); assay: Postemergence herbicidal evaluation; format: in vivo, Glycine max, (L.) Merr. cv Williams; conditions: postemergence
# Summary of the method: as §1
# ABUTH (Velvetleaf) [3] = assay: Preemergence herbicidal evaluation; format: in vivo, Abutilon theophrasti; conditions: preemergence, rated 4-5 weeks after treatment, 0-9 scale
# Summary of the method: (§3)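 Each species is sown separately in potting soil over roughly an inch of soil before any emergence. The soil surface then receives an aqueous acetone spray delivering about 0.0156 to 0.500 kg/ha of compound. After four to five weeks, injury is scored from 0 to 9 relative to a control.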
# CASOB (Sicklepod) = assay: Preemergence herbicidal evaluation; format: in vivo, Cassia obtusifolia; conditions: preemergence, rated 4-5 weeks after treatment, 0-9 scale
# Summary of the method: as §3
# AMBEL (Ragweed, Common) = assay: Preemergence herbicidal evaluation; format: in vivo, Ambrosia artemisifolia; conditions: preemergence, rated 4-5 weeks after treatment, 0-9 scale
# Summary of the method: as §3
# ECHCG (Barnyardgrass) = assay: Preemergence herbicidal evaluation; format: in vivo, Echinochloa crus-galli; conditions: preemergence, rated 4-5 weeks after treatment, 0-9 scale
# Summary of the method: as §3
# [4] = test system: ECHORC (Watergrass (Calif.)); assay: Preemergence weed control under flooded paddy conditions; format: in vivo, Echinochloa oryzoides; conditions: rated 3-4 weeks after treatment
# Summary of the method: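 Visual injury scored 0-9 against control three to four weeks post-treatment, greenhouse-grown. Application: acetone/water (50/50) solutions dosed directly into flood water (1.5-3 cm over silt loam, planted top 0.5 cm), roughly 0.0313 to 0.500 kg/ha active ingredient.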
# [5] = test system: IPOHE (Morningglory, Ivyleaf); assay: Postemergence herbicidal evaluation; format: in vivo, Ipomoea hederacea; conditions: postemergence
# Summary of the method: as §1
# [6] = test system: IPOHE (Morningglory, Ivyleaf); assay: Preemergence herbicidal evaluation; format: in vivo, Ipomoea hederacea; conditions: preemergence, rated 4-5 weeks after treatment, 0-9 scale
# Summary of the method: as §3
# [7] = test system: ECHORC (Watergrass (Calif.)); assay: Postemergence weed control under flooded paddy conditions; format: in vivo, Echinochloa oryzoides; conditions: postemergence weeds, rated 3 to 4 weeks after treatment
# Summary of the method: as §2
# SETVI (Foxtail, Green) = assay: Postemergence herbicidal evaluation; format: in vivo, Setaria viridis; conditions: postemergence
# Summary of the method: as §1
# ZEAMX (Corn, Field) = assay: Postemergence herbicidal evaluation; format: in vivo, Zea mays; conditions: postemergence
# Summary of the method: as §1
compound,measurement,setting,value
"CN1C(=O)C(CC(=O)NS(=O)(=O)c2ccccc2)SC1=Nc1cc(-n2c(=O)cc(C(F)(F)F)n(C)c2=O)c(F)cc1Cl (stereo not drawn) [Compound 102, 2-{{2-Chloro-5-[3,6-dihydro-3-methyl-2,6-dioxo-4-(trifluoromethyl)-1(2H)-pyrimidinyl]-4-fluorophenyl}imino}-3-methyl-4-oxo-N-(phenylsulfonyl)-5-thiazolidineacetamide]",Herbicidal rating ABUTH,ABUTH (Velvetleaf) [1]; rate 0.0156 kg/ha,7.0
same,Herbicidal rating ABUTH,ABUTH (Velvetleaf) [1]; rate 0.0313 kg/ha,9.0
same,Herbicidal rating ABUTH,ABUTH (Velvetleaf) [1]; rate 0.0625 kg/ha,9.0
same,Herbicidal rating ABUTH,ABUTH (Velvetleaf) [1]; rate 0.1250 kg/ha,9.0
same,CYPSE herbicidal effect rating,CYPSE (Flatsedge); 0.2500 kg/ha,0.0
same,CYPSE herbicidal effect rating,CYPSE (Flatsedge); 0.5000 kg/ha,0.0
same,Herbicidal rating CYPIR,CYPIR (Rice Flatsedge); Rate 0.2500 kg/ha,2.0
same,Herbicidal rating CYPIR,CYPIR (Rice Flatsedge); Rate 0.5000 kg/ha,6.0
same,Herbicidal rating GLXMAW,[2]; rate 0.0156 kg/ha,5.0
same,Herbicidal rating GLXMAW,[2]; rate 0.0313 kg/ha,5.0
same,Herbicidal rating GLXMAW,[2]; rate 0.0625 kg/ha,6.0
same,Herbicidal rating GLXMAW,[2]; rate 0.1250 kg/ha,7.5
same,ABUTH rating,ABUTH (Velvetleaf) [3]; 0.0156 kg/ha,0.0
same,ABUTH rating,ABUTH (Velvetleaf) [3]; 0.0313 kg/ha,0.0
same,ABUTH rating,ABUTH (Velvetleaf) [3]; 0.0625 kg/ha,9.0
same,ABUTH rating,ABUTH (Velvetleaf) [3]; 0.2500 kg/ha,6.0
same,ABUTH rating,ABUTH (Velvetleaf) [3]; 0.5000 kg/ha,9.0
same,CASOB rating,CASOB (Sicklepod); 0.0156 kg/ha,0.0
same,CASOB rating,CASOB (Sicklepod); 0.0313 kg/ha,0.0
same,CASOB rating,CASOB (Sicklepod); 0.0625 kg/ha,0.0
same,CASOB rating,CASOB (Sicklepod); 0.2500 kg/ha,0.0
same,CASOB rating,CASOB (Sicklepod); 0.5000 kg/ha,4.0
same,AMBEL rating,"AMBEL (Ragweed, Common); 0.0156 kg/ha",0.0
same,AMBEL rating,"AMBEL (Ragweed, Common); 0.0313 kg/ha",0.0
same,AMBEL rating,"AMBEL (Ragweed, Common); 0.0625 kg/ha",0.0
same,AMBEL rating,"AMBEL (Ragweed, Common); 0.2500 kg/ha",4.0
same,AMBEL rating,"AMBEL (Ragweed, Common); 0.5000 kg/ha",7.0
same,ECHCG rating,ECHCG (Barnyardgrass); 0.0156 kg/ha,0.0
same,ECHCG rating,ECHCG (Barnyardgrass); 0.0313 kg/ha,0.0
same,ECHCG rating,ECHCG (Barnyardgrass); 0.0625 kg/ha,0.0
same,ECHCG rating,ECHCG (Barnyardgrass); 0.2500 kg/ha,0.0
same,ECHCG rating,ECHCG (Barnyardgrass); 0.5000 kg/ha,0.0
same,ECHORC herbicidal effect rating,[4]; 0.2500 kg/ha,0.0
same,ECHORC herbicidal effect rating,[4]; 0.5000 kg/ha,2.0
same,Herbicidal rating IPOHE,[5]; rate 0.0156 kg/ha,9.0
same,Herbicidal rating IPOHE,[5]; rate 0.0313 kg/ha,9.0
same,Herbicidal rating IPOHE,[5]; rate 0.0625 kg/ha,9.0
same,Herbicidal rating IPOHE,[5]; rate 0.1250 kg/ha,9.0
same,IPOHE rating,[6]; 0.0156 kg/ha,0.0
same,IPOHE rating,[6]; 0.0313 kg/ha,0.0
same,IPOHE rating,[6]; 0.0625 kg/ha,0.0
same,IPOHE rating,[6]; 0.2500 kg/ha,1.0
same,IPOHE rating,[6]; 0.5000 kg/ha,9.0
same,Herbicidal rating ECHORC,[7]; Rate 0.2500 kg/ha,0.0
same,Herbicidal rating ECHORC,[7]; Rate 0.5000 kg/ha,2.0
same,Herbicidal rating SETVI,"SETVI (Foxtail, Green); rate 0.0156 kg/ha",0.0
same,Herbicidal rating SETVI,"SETVI (Foxtail, Green); rate 0.0313 kg/ha",1.0
same,Herbicidal rating SETVI,"SETVI (Foxtail, Green); rate 0.0625 kg/ha",2.0
same,Herbicidal rating SETVI,"SETVI (Foxtail, Green); rate 0.1250 kg/ha",4.0
same,Herbicidal rating ZEAMX,"ZEAMX (Corn, Field); rate 0.0156 kg/ha",4.5
same,Herbicidal rating ZEAMX,"ZEAMX (Corn, Field); rate 0.0313 kg/ha",5.0
same,Herbicidal rating ZEAMX,"ZEAMX (Corn, Field); rate 0.0625 kg/ha",5.5
same,Herbicidal rating ZEAMX,"ZEAMX (Corn, Field); rate 0.1250 kg/ha",6.5
"C=CCN1C(=O)C(CC(=O)NS(=O)(=O)CC)SC1=Nc1cc(-n2c(=O)cc(C(F)(F)F)n(C)c2=O)c(F)cc1Cl (stereo not drawn) [Compound 104, 3-Allyl-2-{{2-chloro-5-[3,6-dihydro-3-methyl-2,6-dioxo-4-(trifluoromethyl)-1(2H)-pyrimidinyl]-4-fluorophenyl}imino}-N-(ethylsulfonyl)-4-oxo-5-thiazolidineacetamide]",Herbicidal rating ABUTH,ABUTH (Velvetleaf) [1]; rate 0.0156 kg/ha,7.0
same,Herbicidal rating ABUTH,ABUTH (Velvetleaf) [1]; rate 0.0313 kg/ha,7.0
same,Herbicidal rating ABUTH,ABUTH (Velvetleaf) [1]; rate 0.0625 kg/ha,9.0
same,Herbicidal rating ABUTH,ABUTH (Velvetleaf) [1]; rate 0.1250 kg/ha,9.0
same,CYPSE herbicidal effect rating,CYPSE (Flatsedge); 0.0313 kg/ha,0.0
same,CYPSE herbicidal effect rating,CYPSE (Flatsedge); 0.1250 kg/ha,0.0
same,CYPSE herbicidal effect rating,CYPSE (Flatsedge); 0.2500 kg/ha,0.0
same,Herbicidal rating CYPIR,CYPIR (Rice Flatsedge); Rate 0.0313 kg/ha,5.0
same,Herbicidal rating CYPIR,CYPIR (Rice Flatsedge); Rate 0.0625 kg/ha,9.0
same,Herbicidal rating CYPIR,CYPIR (Rice Flatsedge); Rate 0.1250 kg/ha,9.0
same,Herbicidal rating CYPIR,CYPIR (Rice Flatsedge); Rate 0.2500 kg/ha,9.0
same,Herbicidal rating GLXMAW,[2]; rate 0.0156 kg/ha,4.5
same,Herbicidal rating GLXMAW,[2]; rate 0.0313 kg/ha,5.5
same,Herbicidal rating GLXMAW,[2]; rate 0.0625 kg/ha,7.0
same,Herbicidal rating GLXMAW,[2]; rate 0.1250 kg/ha,8.5
same,ABUTH rating,ABUTH (Velvetleaf) [3]; 0.0625 kg/ha,3.0
same,ABUTH rating,ABUTH (Velvetleaf) [3]; 0.1250 kg/ha,8.0
same,ABUTH rating,ABUTH (Velvetleaf) [3]; 0.2500 kg/ha,9.0
same,ABUTH rating,ABUTH (Velvetleaf) [3]; 0.5000 kg/ha,9.0
same,CASOB rating,CASOB (Sicklepod); 0.0625 kg/ha,0.0
same,CASOB rating,CASOB (Sicklepod); 0.1250 kg/ha,0.0
same,CASOB rating,CASOB (Sicklepod); 0.2500 kg/ha,0.0
same,CASOB rating,CASOB (Sicklepod); 0.5000 kg/ha,0.0
same,AMBEL rating,"AMBEL (Ragweed, Common); 0.0625 kg/ha",0.0
same,AMBEL rating,"AMBEL (Ragweed, Common); 0.1250 kg/ha",0.0
same,AMBEL rating,"AMBEL (Ragweed, Common); 0.2500 kg/ha",3.0
same,AMBEL rating,"AMBEL (Ragweed, Common); 0.5000 kg/ha",9.0
same,ECHCG rating,ECHCG (Barnyardgrass); 0.0625 kg/ha,0.0
same,ECHCG rating,ECHCG (Barnyardgrass); 0.1250 kg/ha,0.0
same,ECHCG rating,ECHCG (Barnyardgrass); 0.2500 kg/ha,1.0
same,ECHCG rating,ECHCG (Barnyardgrass); 0.5000 kg/ha,1.0
same,ECHORC herbicidal effect rating,[4]; 0.0313 kg/ha,4.0
same,ECHORC herbicidal effect rating,[4]; 0.0625 kg/ha,5.0
same,ECHORC herbicidal effect rating,[4]; 0.1250 kg/ha,6.0
same,ECHORC herbicidal effect rating,[4]; 0.2500 kg/ha,6.0
same,Herbicidal rating IPOHE,[5]; rate 0.0156 kg/ha,9.0
same,Herbicidal rating IPOHE,[5]; rate 0.0313 kg/ha,9.0
same,Herbicidal rating IPOHE,[5]; rate 0.0625 kg/ha,9.0
same,Herbicidal rating IPOHE,[5]; rate 0.1250 kg/ha,9.0
same,IPOHE rating,[6]; 0.0625 kg/ha,0.0
same,IPOHE rating,[6]; 0.1250 kg/ha,0.0
same,IPOHE rating,[6]; 0.2500 kg/ha,3.0
same,IPOHE rating,[6]; 0.5000 kg/ha,9.0
same,Herbicidal rating ECHORC,[7]; Rate 0.0313 kg/ha,4.0
same,Herbicidal rating ECHORC,[7]; Rate 0.0625 kg/ha,5.0
same,Herbicidal rating ECHORC,[7]; Rate 0.1250 kg/ha,6.0
same,Herbicidal rating ECHORC,[7]; Rate 0.2500 kg/ha,6.0
same,Herbicidal rating SETVI,"SETVI (Foxtail, Green); rate 0.0156 kg/ha",0.0
same,Herbicidal rating SETVI,"SETVI (Foxtail, Green); rate 0.0313 kg/ha",0.0
same,Herbicidal rating SETVI,"SETVI (Foxtail, Green); rate 0.0625 kg/ha",3.0
same,Herbicidal rating SETVI,"SETVI (Foxtail, Green); rate 0.1250 kg/ha",4.0
same,Herbicidal rating ZEAMX,"ZEAMX (Corn, Field); rate 0.0156 kg/ha",4.5
same,Herbicidal rating ZEAMX,"ZEAMX (Corn, Field); rate 0.0313 kg/ha",4.5
same,Herbicidal rating ZEAMX,"ZEAMX (Corn, Field); rate 0.0625 kg/ha",6.0
same,Herbicidal rating ZEAMX,"ZEAMX (Corn, Field); rate 0.1250 kg/ha",8.0
